Measured values published in PMC10676574, “In-silico and in-vitro screening of Asiatic acid and Asiaticoside A against Cathepsin S enzyme” (BMC Pharmacology & Toxicology, 2023).
Read-outs that look alike come from different tables or passages of the source.

Biological target: T1, Cathepsin S (Homo sapiens, UniProt P25774)
T1 construct: gene CTSS
Assay: fluorometric cathepsin S inhibitor assay kit (ab185437), Z-VVR-AFC substrate, kinetic mode
Type: biochemical

T1 sequence (P25774 115-331): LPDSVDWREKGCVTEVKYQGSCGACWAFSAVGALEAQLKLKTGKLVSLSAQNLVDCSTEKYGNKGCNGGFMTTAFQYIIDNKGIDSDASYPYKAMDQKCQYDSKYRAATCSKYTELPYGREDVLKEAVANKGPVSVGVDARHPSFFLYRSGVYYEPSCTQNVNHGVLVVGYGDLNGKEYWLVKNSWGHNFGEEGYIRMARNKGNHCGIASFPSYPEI

Row | IC50 (read-out: IC50) | Compound | IC50
1 | – | C[C@H]1[C@H](C)CC[C@]2(C(=O)O)CC[C@]3(C)C(=CC[C@@H]4[C@@]5(C)C[C@@H](O)[C@H](O)[C@@](C)(CO)[C@@H]5CC[C@]43C)[C@H]12 [asiatic acid] | 14.6 µM
2 | 0.667 µM | asiaticoside A | –
